From patent publication US4588817A, “Antibiotic nodusmicins” (priority 1984, dated 1986)
≈ marks a conversion by molar mass, not a printed value. Where two headings read alike, the source gives them in different places.

Tests used:
S. aureus UC-76 = experiment: MIC, microplate broth-dilution, S. aureus UC-76; details: Sensitive strain; BHI broth
S. aureus UC 80 = experiment: agar diffusion (dipped disc) assay, zone of inhibition, S. aureus UC 80; details: 1 mg./ml. methanolic solution, 12.7 mm paper disc, 16 hours; NZ = no zone
S. lutea UC-130 = experiment: agar diffusion (dipped disc) assay, zone of inhibition, S. lutea UC-130; details: for zone of inhibition at 1000 µg/mL: Micrococcus luteus
[1] = solubility remark in the MIC test; details: in place of MIC values
S. aureus UC-570 = experiment: MIC, microplate broth-dilution, S. aureus UC-570; details: Sensitive strain; BHI broth
S. aureus UC-746 = experiment: MIC, microplate broth-dilution, S. aureus UC-746; details: Resistant to tetracycline; BHI broth

## COC1CC2C=CC3C4OC2(C(C)=CC(C)C(C(C)O)OC1=O)C3C(O)C(C)C4OC(=O)c1ccc[nH]1 (stereo not drawn) [U-59,760, 9-O-pyrrole-2-carbonyl ester of nodusmicin, reference compound]
S. aureus UC-76
  MIC S. aureus UC-76: 0.125 µg/mL (≈ 0.242 µM)
S. aureus UC 80
  Agar Diffusion S. aureus UC 80 (inhibition zone): 38

## COC1CC2C=CC3C4OC2(C(C)=CC(C)C(C(C)OC(=O)c2ccccc2)OC1=O)C3C(O)C(C)C4O (stereo not drawn) [18-O--benzoyl-, 18-O-benzoylnodusmicin]
S. lutea UC-130; UC130, 16 h, read-out: Agar Diffusion S. lutea UC-130 (inhibition zone)
  zone of inhibition at 1000 µg/mL: 24 mm
S. lutea UC-130; UC130, read-out: zone of inhibition, S. lutea
  zone of inhibition at 1000 µg/mL: 24 mm

## COC1CC2C=CC3C4OC2(C(C)=CC(C)C(C(C)OC(=O)c2ccc[nH]2)OC1=O)C3C(O)C(C)C4OC(=O)c1ccc[nH]1 (stereo not drawn) [U-60,908, 9, 18-O--Dipyrrole-2-carbonyl-]
[1]
  insoluble: insoluble

## COC1CC2C=CC3C4OC2(C(C)=CC(C)C(C(C)O)OC1=O)C3C(O)C(C)C4OC(=O)c1ccccc1 (stereo not drawn) [9-O--benzoyl-, 9-O-benzoyl-nodusmicin]
[1]
  insoluble: insoluble

## COC1CC2C=CC3C4OC2(C(C)=CC(C)C(C(C)O)OC1=O)C3C(O)C(C)C4OC(=O)c1cc2ccccc2[nH]1 (stereo not drawn) [U-61,273, 9-O--Indole-2-carbonyl-]
[1]
  insoluble: insoluble

## 9-O--3-Furoyl- [U-61,461]
S. aureus UC-76
  MIC S. aureus UC-76: 0.50 µg/mL
S. aureus UC-570
  MIC S. aureus UC-570: 0.25 µg/mL
S. aureus UC-746
  MIC S. aureus UC-746: 0.50 µg/mL
S. aureus UC 80
  Agar Diffusion S. aureus UC 80 (inhibition zone): 35
S. lutea UC-130; 1 mg./ml. methanolic solution, 12.7 mm paper disc, 16 hours, NZ = no zone
  Agar Diffusion S. lutea UC-130 (inhibition zone): 41
